Results published in patent EP0755942B1, “N-AMIDINO […]” (DAIICHI PHARMACEUTICAL CO., LTD., priority 1994, dated 1995).

Tests used:
[1] = tested on: Mice; experiment: analgesic activity by pressure stimulation method (tail base); assay type: in vivo; conditions: dose that induced 50 percent of % of MPE; for ED50(mg/kg) s.c.: subcutaneous administration (skin in the backs); for ED50(mg/kg) p.o.: oral administration
Method: The analgesic activities of the peptide derivatives of the present invention were evaluated by pressure stimulation method. Mice were subjected to pressure stimulation at the bases of their tails at the rate of 10 mmHg/second. […] For the experiments, mice that normally responded to a pressure of 40-50 mmHg were used. The maximum stimulating pressure was 100 mmHg. Analgesic activity was calculated as percent of maximum possible effect (% of MPE) according to the equation: % of MPE =(Pt - Po)/(Pc - Po)× 100 [formula] wherein Po is the pain reaction threshold before the administration of a drug; Pt is the pain reaction threshold "t" minutes after the administration of the drug; and Pc is the maximum stimulating pressure. ED50 values were calculated based on dose response curves as doses that induced 50 percent of % of MPE and analgesic activities of the drugs were compared.

[2] = intraventricular administration, relative to morphine; cited from earlier work
[3] = cited from earlier work

Compound	ED50(mg/kg) s.c. [1]	ED50(mg/kg) p.o. [1]	also measured
CN(CC(N)=O)C(=O)[C@H](Cc1ccccc1)NC(=O)[C@@H](CCCNC(=N)N)NC(=O)[C@H](Cc1ccc(O)cc1)NC(=N)N [H2NC(NH)-Tyr-(D)Arg-Phe-N(CH3)CH2CONH2]	0.27 mg/kg		
CN(C)C(=O)[C@H](Cc1ccccc1)NC(=O)[C@@H](CCCNC(=N)N)NC(=O)[C@H](Cc1ccc(O)cc1)NC(=N)N [H2NC(NH)-Tyr-(D)Arg-Phe-N(Me)2]	1.22 mg/kg		
CCN(CCC(=O)O)C(=O)[C@H](Cc1ccccc1)NC(=O)[C@@H](CCCNC(=N)N)NC(=O)[C@H](Cc1ccc(O)cc1)NC(=N)N [H2NC(NH)-Tyr-D-Arg-Phe-N(CH2CH3)CH2CH2COOH]	0.15 mg/kg	16.0 mg/kg	
COC(=O)CCN(C)C(=O)[C@H](Cc1ccccc1)NC(=O)[C@@H](CCCNC(=N)N)NC(=O)[C@H](Cc1ccc(O)cc1)NC(=N)N [H2NC(NH)-Tyr-D-Arg-Phe-N(CH3)CH2CH2COOCH3]	0.12 mg/kg	8.9 mg/kg	
CN(CCC(=O)O)C(=O)[C@H](Cc1ccccc1)NC(=O)[C@@H](CCCNC(=N)N)NC(=O)[C@H](Cc1ccc(O)cc1)NC(=N)N [H2NC(NH)-Tyr-D-Arg-Phe-N(CH3)CH2CH2COOH]	0.10 mg/kg	6.6 mg/kg	
CN(CC(=O)O)C(=O)[C@H](Cc1ccccc1)NC(=O)[C@@H](CCCNC(=N)N)NC(=O)[C@H](Cc1ccc(O)cc1)NC(=N)N [H2NC(NH)-Tyr-D-Arg-Phe-N(CH3)CH2COOH]	0.39 mg/kg	17.8 mg/kg	
N=C(N)NCCC[C@@H](NC(=O)[C@H](Cc1ccc(O)cc1)NC(=N)N)C(=O)N[C@@H](Cc1ccccc1)C(=O)NCCCO [H2NC(NH)-Tyr-D-Arg-Phe-NHCH2CH2CH2OH]	0.88 mg/kg		
N=C(N)NCCC[C@@H](NC(=O)[C@H](Cc1ccc(O)cc1)NC(=N)N)C(=O)N[C@@H](Cc1ccccc1)C(=O)NCCC(N)=O [H2NC(NH)-Tyr-D-Arg-Phe-NHCH2CH2CONH2]	0.13 mg/kg	10.7 mg/kg	
N=C(N)NCCC[C@@H](NC(=O)[C@H](Cc1ccc(O)cc1)NC(=N)N)C(=O)N[C@@H](Cc1ccccc1)C(=O)NCCC(=O)O [H2NC(NH)-Tyr-D-Arg-Phe-NHCH2CH2COOH]	0.14 mg/kg	5.8 mg/kg	
Dermorphine			analgesic effect higher than morphine [2]: about 1,000 fold
Tyr-D-Arg^2-Phe-Sarcosine [TAPS]			potency relative to dermorphin ([3]; opioid effects such as analgesia, relative to dermorphin): about 6 times; duration of sufficient analgesic effects ([3]; oral administration): 3 h
